Converted amounts (≈) assume the structure as drawn.
Columns and labels:
[1] = Passive permeability across apical to basolateral side in dog MDCK-MDR1 cells; type: ADME, cell-based, Canis lupus familiaris
[2] = Metabolic stability in human liver microsomes assessed as half life incubated upto 60 mins in presence of NADPH by LC-MS/MS analysis; type: ADME, Microsome
[3] = Metabolic stability in mouse liver microsomes assessed as half life incubated upto 60 mins in presence of NADPH by LC-MS/MS analysis; type: ADME, Microsome
[4] = Equilibrium solubility of compound in PBS at pH 2 incubated for 2 to 5 days by HPLC analysis; type: physicochemical; details: PBS, time 2-5 day
[5] = Plasma protein binding in C57BL mouse at 1 uM incubated for 6.5 hrs by LC-MS/MS analysis; type: ADME, cell-free; details: read-out: PPB (converted)
[6] = Volume of distribution at steady state in C57BL mouse at 2 mg/kg,iv measured upto 24 hrs by LC-MS/MS analysis; type: ADME, organism-based; details: in vivo, read-out: Vdss
[7] = Half life in C57BL mouse at 2 mg/kg,iv measured upto 24 hrs by LC-MS/MS analysis; type: ADME, organism-based; details: in vivo
[8] = Tmax in C57BL mouse at […] measured upto 24 hrs by LC-MS/MS analysis; type: ADME, organism-based; details: in vivo
[9] = AUC (0 to infinity) in C57BL mouse at 2 mg/kg,iv measured upto 24 hrs by LC-MS/MS analysis; type: ADME, organism-based; details: in vivo
[10] = Oral bioavailability in C57BL mouse at 10 mg/kg measured upto 24 hrs by LC-MS/MS analysis; type: ADME, organism-based; details: in vivo
[11] = Clearance in cynomolgus monkey at 1 mg/kg,iv; type: ADME, organism-based, Macaca fascicularis; details: in vivo
[12] = Tmax in cynomolgus monkey at 10 mg/kg,po; type: ADME, organism-based, Macaca fascicularis; details: in vivo
[13] = AUC (0 to infinity) in cynomolgus monkey at 10 mg/kg,po; type: ADME, organism-based, Macaca fascicularis; details: in vivo
[14] = Oral bioavailability in cynomolgus monkey at 10 mg/kg; type: ADME, organism-based, Macaca fascicularis; details: in vivo
[15] = Metabolic stability in rat liver microsomes assessed as half life incubated upto 60 mins in presence of NADPH by LC-MS/MS analysis; type: ADME, Microsome
[16] = Metabolic stability in monkey liver microsomes assessed as half life incubated upto 60 mins in presence of NADPH by LC-MS/MS analysis; type: ADME, Macaca mulatta, Microsome; details: rhesus monkey
[17] = Half life in human hepatocyte; type: ADME, cell-based; details: hepatocytes
[18] = Half life in rat hepatocyte; type: ADME, cell-based; details: hepatocytes
[19] = Half life in mouse hepatocyte; type: ADME, cell-based; details: hepatocytes
[20] = Half life in monkey hepatocyte; type: ADME, cell-based, Macaca mulatta; details: rhesus monkey, hepatocytes
[21] = Half life in dog hepatocyte; type: ADME, cell-based, Canis lupus familiaris; details: hepatocytes
[22] = target: T1, AhR (aryl hydrocarbon receptor) (Homo sapiens, UniProt P35869); experiment: Activation of AhR (unknown origin) assessed as fold change at 1 to 10 uM relative to control; details: dose 1-10 µM, read-out: FC
T1 sequence (P35869 whole entry): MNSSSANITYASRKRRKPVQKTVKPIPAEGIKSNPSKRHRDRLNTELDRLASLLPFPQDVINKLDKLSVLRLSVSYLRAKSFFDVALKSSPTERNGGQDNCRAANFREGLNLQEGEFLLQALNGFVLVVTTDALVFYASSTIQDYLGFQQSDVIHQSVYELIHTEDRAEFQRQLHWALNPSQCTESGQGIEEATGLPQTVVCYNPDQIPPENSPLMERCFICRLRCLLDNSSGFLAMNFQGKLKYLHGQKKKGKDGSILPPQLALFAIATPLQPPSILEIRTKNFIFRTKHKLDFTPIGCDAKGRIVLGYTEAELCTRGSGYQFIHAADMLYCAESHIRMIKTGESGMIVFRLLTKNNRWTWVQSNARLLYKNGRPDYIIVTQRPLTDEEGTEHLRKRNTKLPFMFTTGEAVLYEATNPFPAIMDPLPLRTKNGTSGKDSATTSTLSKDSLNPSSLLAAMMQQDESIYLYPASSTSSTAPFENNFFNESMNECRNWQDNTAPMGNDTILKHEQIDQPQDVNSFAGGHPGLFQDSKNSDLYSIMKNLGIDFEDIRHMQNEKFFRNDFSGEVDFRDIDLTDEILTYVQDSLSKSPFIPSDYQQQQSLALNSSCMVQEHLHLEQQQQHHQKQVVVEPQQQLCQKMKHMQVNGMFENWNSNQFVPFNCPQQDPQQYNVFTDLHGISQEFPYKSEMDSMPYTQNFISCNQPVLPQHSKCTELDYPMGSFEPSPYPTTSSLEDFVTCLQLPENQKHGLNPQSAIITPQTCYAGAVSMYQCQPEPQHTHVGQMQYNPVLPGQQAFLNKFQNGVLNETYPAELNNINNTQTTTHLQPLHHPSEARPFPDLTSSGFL

CYP3A4 = CYP3A4 (Homo sapiens, UniProt P08684); experiment: Induction of CYP3A4 in cryopreserved human hepatocytes using midazolam as substrate assessed as fold change at 10 uM relative to control; type: ADME, cell-based, Hepatocyte; details: probe midazolam, read-out: FC
CYP3A4, sequence (P08684 whole entry): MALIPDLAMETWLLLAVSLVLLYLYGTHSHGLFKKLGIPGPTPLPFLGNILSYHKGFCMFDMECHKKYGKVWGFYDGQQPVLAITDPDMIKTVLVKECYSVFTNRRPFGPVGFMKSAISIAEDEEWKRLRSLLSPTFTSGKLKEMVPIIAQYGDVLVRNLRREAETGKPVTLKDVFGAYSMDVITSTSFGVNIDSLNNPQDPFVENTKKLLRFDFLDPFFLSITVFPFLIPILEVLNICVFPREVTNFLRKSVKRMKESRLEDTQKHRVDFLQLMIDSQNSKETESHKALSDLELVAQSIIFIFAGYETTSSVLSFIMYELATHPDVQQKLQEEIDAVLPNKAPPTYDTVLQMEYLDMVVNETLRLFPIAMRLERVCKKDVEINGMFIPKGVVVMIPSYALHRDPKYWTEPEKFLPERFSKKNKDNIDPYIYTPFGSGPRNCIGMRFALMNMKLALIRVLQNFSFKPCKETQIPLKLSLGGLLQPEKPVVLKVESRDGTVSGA

[23] = target: Voltage-gated inwardly rectifying potassium channel KCNH2 (Homo sapiens, UniProt Q12809); experiment: Inhibition of hERG; type: toxicity
Voltage-gated inwardly rectifying potassium channel KCNH2, sequence (Q12809 whole entry): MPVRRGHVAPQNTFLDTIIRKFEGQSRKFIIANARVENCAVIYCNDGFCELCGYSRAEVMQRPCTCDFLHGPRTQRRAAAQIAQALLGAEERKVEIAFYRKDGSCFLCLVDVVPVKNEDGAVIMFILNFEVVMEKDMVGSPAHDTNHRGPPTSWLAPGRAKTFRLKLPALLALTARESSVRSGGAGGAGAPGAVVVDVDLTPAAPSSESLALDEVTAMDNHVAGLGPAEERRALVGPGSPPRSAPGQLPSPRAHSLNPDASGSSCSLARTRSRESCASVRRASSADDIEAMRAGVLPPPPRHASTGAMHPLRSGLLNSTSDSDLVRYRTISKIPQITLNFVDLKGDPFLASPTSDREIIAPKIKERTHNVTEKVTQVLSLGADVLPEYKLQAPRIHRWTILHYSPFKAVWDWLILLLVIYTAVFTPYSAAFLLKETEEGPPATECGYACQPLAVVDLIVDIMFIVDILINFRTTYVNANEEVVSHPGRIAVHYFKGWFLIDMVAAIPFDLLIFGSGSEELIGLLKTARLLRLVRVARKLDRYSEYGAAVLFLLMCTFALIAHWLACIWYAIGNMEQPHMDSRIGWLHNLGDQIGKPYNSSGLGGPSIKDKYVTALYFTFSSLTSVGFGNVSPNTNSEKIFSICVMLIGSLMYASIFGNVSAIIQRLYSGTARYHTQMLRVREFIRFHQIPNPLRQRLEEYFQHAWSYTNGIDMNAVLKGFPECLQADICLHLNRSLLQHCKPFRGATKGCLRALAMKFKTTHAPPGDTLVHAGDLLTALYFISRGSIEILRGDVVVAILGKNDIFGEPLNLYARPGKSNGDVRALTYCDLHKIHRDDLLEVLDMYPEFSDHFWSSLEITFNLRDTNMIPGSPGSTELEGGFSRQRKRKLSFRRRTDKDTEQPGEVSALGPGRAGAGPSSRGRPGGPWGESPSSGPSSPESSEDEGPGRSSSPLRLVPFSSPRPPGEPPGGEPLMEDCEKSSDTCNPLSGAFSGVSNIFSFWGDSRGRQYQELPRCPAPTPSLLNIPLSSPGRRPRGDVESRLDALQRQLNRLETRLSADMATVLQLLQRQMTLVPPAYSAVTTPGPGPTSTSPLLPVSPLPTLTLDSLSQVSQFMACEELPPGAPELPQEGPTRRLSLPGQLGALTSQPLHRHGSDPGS

[24] = Inhibition of Calcium ion channel (unknown origin); set-up: species or system Homo sapiens
[25] = Inhibition of Sodium ion channel (unknown origin); set-up: species or system Homo sapiens
[26] = target: Kappa-type opioid receptor (Homo sapiens, UniProt P41145); experiment: Inhibition of KOP (unknown origin) at 10 uM relative to control
Kappa-type opioid receptor, sequence (P41145 whole entry): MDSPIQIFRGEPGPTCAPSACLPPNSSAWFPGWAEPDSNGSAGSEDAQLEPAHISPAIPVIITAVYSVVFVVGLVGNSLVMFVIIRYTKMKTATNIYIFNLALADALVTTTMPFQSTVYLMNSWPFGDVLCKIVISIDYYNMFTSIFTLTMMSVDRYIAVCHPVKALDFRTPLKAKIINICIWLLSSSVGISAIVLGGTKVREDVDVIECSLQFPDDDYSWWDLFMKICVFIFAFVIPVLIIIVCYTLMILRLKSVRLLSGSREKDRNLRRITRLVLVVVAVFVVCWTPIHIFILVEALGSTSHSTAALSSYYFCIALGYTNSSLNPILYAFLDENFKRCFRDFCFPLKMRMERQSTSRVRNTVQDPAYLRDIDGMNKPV

[27] = target: Dihydroorotate dehydrogenase (quinone), mitochondrial (Homo sapiens, UniProt Q02127); experiment: Binding affinity to recombinant human DHODH assessed as half life
Dihydroorotate dehydrogenase (quinone), mitochondrial, sequence (Q02127 whole entry): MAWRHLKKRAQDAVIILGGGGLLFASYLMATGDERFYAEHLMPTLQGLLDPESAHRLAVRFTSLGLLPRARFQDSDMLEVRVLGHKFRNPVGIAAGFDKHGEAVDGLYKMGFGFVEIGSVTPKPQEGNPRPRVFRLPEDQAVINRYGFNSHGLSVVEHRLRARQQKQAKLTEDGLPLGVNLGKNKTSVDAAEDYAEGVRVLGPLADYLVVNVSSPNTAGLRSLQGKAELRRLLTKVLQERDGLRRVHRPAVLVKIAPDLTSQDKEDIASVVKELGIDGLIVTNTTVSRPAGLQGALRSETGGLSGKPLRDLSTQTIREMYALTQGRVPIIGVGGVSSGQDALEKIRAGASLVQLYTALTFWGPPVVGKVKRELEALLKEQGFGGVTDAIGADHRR

MOLM-13 [28] = experiment: Antitumor activity against human MOLM-13 cells xenografted in NSG mouse assessed as tumor growth inhibition at 0.031 mg/kg,po administrated daily for 10 days relative to control; type: functional; details: MOLM-13, 240 h, time 10 day, read-out: TGI
MOLM-13 [29] = experiment: Antitumor activity against human MOLM-13 cells xenografted in NSG mouse assessed as tumor growth inhibition at 0.125 mg/kg,po administrated daily for 10 days relative to control; type: functional; details: MOLM-13, 240 h, time 10 day, read-out: TGI
MOLM-13 [30] = experiment: Antitumor activity against human MOLM-13 cells xenografted in NSG mouse assessed as tumor growth inhibition at 0.25 mg/kg,po administrated daily for 10 days relative to control; type: functional; details: MOLM-13, 240 h, time 10 day, read-out: TGI
[31] = Toxicity in NSG mouse xenografted with human MOLM-13 cells assessed as change in body weight at 0.031 to 0.25 mg/kg,po administrated daily for 10 days relative to control; type: organism-based; details: in vivo, 240 h, dose 0.031-0.25 mg/kg, time 10 day

CCn1c(CO)nn(-c2cc3c(C(C)C)cn(-c4ccccc4C)c(=O)c3cc2F)c1=O
Papp A→B [1]: 33.1 ×10⁻⁶ cm/s
half-life [2]: > 3 h
half-life [3]: > 3 h
solubility thermodynamic [4]: 325 µM (≈ 142 µg/mL)
fraction unbound at 6.5 h, 1 µM [5]: 0.088
Vd [6]: 1.6 L/kg
half-life [7]: 5.7 h
Tmax [8]: 1.7 h
AUC [9]: 57200 ng·h/mL
bioavailability [10]: 125%
clearance [11]: 2.4 mL/min/kg
Tmax [12]: 3.3 h
AUC(0-inf) [13]: 64600 ng·h/mL
bioavailability [14]: 88%
half-life [15]: > 3 h
half-life [16]: > 3 h
half-life [17]: > 6.18 h
half-life [18]: > 6.18 h
half-life [19]: > 6.18 h
half-life [20]: > 6.18 h
half-life [21]: 0.242 h
fold induction [22]: < 2
fold induction at 10 µM (CYP3A4): 2.5
IC50 [23]: > 10 µM
IC50 [24]: > 10 µM
IC50 [25]: > 10 µM
inhibition [26]: 96%
T1/2 [27]: 0.328 h
inhibition in vivo at 0.031 mg/kg (MOLM-13 [28]): 42%
inhibition in vivo at 0.125 mg/kg (MOLM-13 [29]): 92%
inhibition in vivo at 0.25 mg/kg (MOLM-13 [30]): 93%
Activity [31]: Toxic
